What was measured:
[1] = test system: human HSCs from bone marrow or umbilical cord blood; assay: human HSC expansion ex vivo; type: cell-based; settings: human hematopoietic cell culture, in comparison to DMSO control group
Protocol: Human HSC Expansion: The cells obtained from bone marrow or umbilical cord blood were separated by Percoll and mononuclear cells were obtained. They were transferred to the tubes containing HSC medium. HSC medium known as SCF medium was used in the culture of the isolated bone marrow and umbilical cord blood HSCs. […] Following HSC purification, HSCs were seeded into a 96-well plate (Corning, 3799) at 200-300 HSCs per well; and upon adding maximum 200 μl of MEIS inhibitors mixed in SCF medium into each cell, they were incubated in 5% CO2 and normal O2 level at 37° C. for 7-10 days. Then, the number and percentage (frequency) of the HSCs and of the other hematopoietic progenitor cells were determined. The results were compared with the control group treated with DMSO (ER: E).

[2] = test system: L929 murine fibroblastic cell line; assay: cytotoxic analyses, WST1, L929 cell line; type: cell-based; settings: L929 cells, 0, 1, 1 and 10 μM doses, 4 days
Protocol: 6—Cytotoxic Analyses of MEIS Inhibitors
L929 murine fibroblastic cell line was used for cytotoxic analyses of the MEIS inhibitors. The cells were seeded into a 96-well plate (Corning, 3799) at 2000 cells per well. The next day after seeding, the cells were treated by different doses by means of gradient concentration method using final concentrations of 0.1 μM, 1 μM, 10 μM with Meis1 inhibitor 1 (MEISi-1) and Meis1 inhibitor 2 (MEISi-2) mixed into each well in maximum 200 μl DMEM medium, and they were incubated in 5% CO2 and normal O2 level at 37° C. 4 days after the incubation, 10 μl WST1 cell proliferation solution (Boster, AR1159) was added, and after incubation of 4 hours, absorbance measurement was carried out at 450 nm by Thermo Lab system Multiskan Spektrum (ER-G).

[3] = dose-dependent in vitro experiments (effective dose); type: cell-based
Protocol: The effective dose was determined to be 1 μM by means of the dose-dependent in vitro experiments.

[4] = test system: HSCs in mouse bone marrow and blood; assay: in vivo proliferation of HSCs with MEIS inhibitors; settings: 0.5 mg/kg to 10 mg/kg, 10 days after administration
Protocol: 5—In Vivo Proliferation of HSCs with MEIS Inhibitors
As an alternative to ex vivo proliferation of HSCs by using small molecules, it was shown that application of MEIS inhibitors directly for in vivo HSC proliferation is also possible. The injected MEIS inhibitors were administered intraperitoneally in the range of 0.5 mg/kg to 10 mg/kg. In order to ensure effective incubation, the inhibitors were administered to the mice in 3 different doses; and 10 days after administration, the amount of the HSCs obtained from the bone marrow of the mice was determined (FIG. 9) (ER: F).

[5] = test system: p21-Luc MEIS reporter (Meis1); assay: in vitro p21 luciferase reporter assay in COS cells; type: cell-based; settings: COS cells, 0.1, 1 and 10 μM, 48 hours
Protocol: 2—Determining Meis1 Inhibitors by In Vitro Luciferase Reporter Assay
MEIS inhibitors were tested by conducting the luciferase reporter assay. It was observed that MEIS protein activated the luciferase reporters containing increasing doses of p21 promoters. pGL2 vectors comprising p21 gene promoter, which is activated by Meis1, were used in the luciferase assays. Therefore, 0.8 μg p21-pGL2, 400 ng Meis1 expression vector pCMVSPORT6-Meis1 (Open BioSystems) and 0.2 μg p CMV-LacZ (internal control) vector were transfected together to the COS cells. 4 hours later, the cells were treated with prototype MEIS inhibitors (at 0.1, 1 and 10 μM concentrations). 6-well plates and lipofectamine were used for transfection. 48 hours later, the cells were lysed, samples were collected and luciferase activity was determined. Reporter system of Promega (Promega Dual-Glo® Luciferase Assay System) was used for this. Luciferase measurements were normalized according to β-gal measurements (measurements were made at 420 nm). Thermo Lab system Lumino scan Ascent device was used for the luciferase measurements. As a result of these experimental studies, the in silico study, which targeted MEIS homeodomain and was conducted in comparison to the other TALE homeodomain, enabled to determine MEIS-specific hits (Experimental Results (ER): ER-A).

[6] = test system: p21, Hif-1alpha (Hif-1α), Hif-2alpha (Hif-2α) genes in the Meis1 pathway; assay: real-time RT-PCR of Meis1 pathway genes in HSCs; type: cell-based; settings: HSCs, 0.1, 1 and 10 μM, 3 days, vs DMSO
Protocol: 3—Testing MEIS Inhibitors by Real-Time RT-PCR
HSCs were prepared for each inhibitor (3 replicates in 6 wells) and cell series containing DMSO were used as control group. For each potential small molecule, assays were conducted at concentrations of 0.1, 1 and 10 μM; and the cells were trypsinized and collected after 3 days and were stored in trizol until RNA isolation was carried out. RNA isolation was performed by using Qiagen in RNeasy mini kit and protocol. cDNA was synthesized from 2 μg RNA by using Invitrogen in Superscript II RT system. Assays were conducted in BioRad CFX 96 Real Time PCR device by using SyberGreen (AppliedBiosystems). GAPDH was used as the control gene and was used for normalizing gene expression by ddCT method. Levels of the p21, Hif-1alpha (Hif-1α), Hif-2alpha (Hif-2α) gene expressions, which are known to be activated by Meis1, were determined and were controlled by DMSO control group (FIG. 3) (ER: B).

[7] = test system: Lin− cells obtained from the bone marrow / HSCs; assay: ex vivo mouse HSC proliferation (Lin− bone marrow cells, flow cytometry); type: cell-based; settings: dose dependent
Protocol: 4—Determining the effect of MEIS inhibitor on ex vivo HSC proliferation
Bone marrow isolation from mouse and HSC purification were performed. For this, following euthanasia of 8-12 week old mice with isoflurane, bone marrow cells were obtained from femur and tibia bones. Briefly, Lin−, Sca1+, c-Kit+, CD34low cells (long term HSCs) were obtained by being stained with cell line cocktail with biotin (anti-CD3, anti-CDS, anti-B220, anti-Mac-1, anti-Gr1, anti-Ter119; Stem Cell Technologies), and that was followed by streptavidin-PE/Cy5.5, anti-Sca-1-FITC, anti-KIT-APC, and anti-CD34-PE staining. HSC medium known as SCF medium was used in the culture of the isolated bone marrow cells. […]
HSC frequency and number: The Lin− cells obtained from the bone marrow were treated in the cell culture with MEIS inhibitors or DMSO for 10 days, and subsequently the number of hematopoietic cells (FIG. 4) and the percentage of HSCs (FIGS. 5 and 6) were determined. In order to determine the number of HSCs, the concerned surface antigens (Lin−, Sca1+, c-Kit+, CD34−) were stained with fluorochrome conjugated antibody as in the previous studies and then analyzed with flow cytometry (ER: C).

| Compound | ALDHBr HSC number increase [1] | CD34+ HSC number increase [1] | CD34+CD133 HSC number increase [1] | CD133+ HSC number increase [1] | cytotoxicity [2] | effective dose [3] | HSC number in mouse bone marrow (LSKCD34low cells) [4] | HSC number in the blood (LSKCD150+CD48− cells) [4] | inhibition of p21-Luc MEIS reporter (luciferase activity) [5] | expression of Hif-1alpha (Hif-1α) gene [6] | expression of Hif-2alpha (Hif-2α) gene [6] | expression of p21 gene [6] | increase in the number of HSCs [7] |
| --- | --- | --- | --- | --- | --- | --- | --- | --- | --- | --- | --- | --- | --- |
| Cc1cccc(NC(=O)c2ccc(OCC(=O)NCc3ccccc3)cc2)c1C [MEISi-1, 4-[2-(benzylamino)-2-oxoethoxy]-N-(2,3-dimethylphenyl) benzamide] | 2 times | 2 times | 2 times | 2 times | not cytotoxic | 1 µM | successfully increased HSC number | successfully increased HSC number | inhibit p21-Luc MEIS reporter in a dose-dependent manner | reduce expression | reduce expression | reduce expression | up to 10 times |
| O=C1C=Cc2ccccc2/C1=C/NNC(=O)c1ccc(O)cc1 [MEISi-2, 4-hydroxy-N′-[(Z)-(2-oxonaphthalen-1-ylidene)methyl] benzohydrazide] | 2 times | 2 times | 2 times | 2 times | not cytotoxic | 1 µM | successfully increased HSC number | successfully increased HSC number | inhibit p21-Luc MEIS reporter in a dose-dependent manner | reduce expression | reduce expression | reduce expression | up to 3 times |
